Data as given in publication PMC10552471 (ACS Omega, 2023).
Where a name gives a salt, the structure may show the parent alone.

Assays:
Type in all cases: biochemical
[1] = biological target: T1, Plasmodium falciparum serine hydroxymethyltransferase (PfSHMT) (Plasmodium falciparum, UniProt Q8I566)
T1 sequence (Q8I566 1-442): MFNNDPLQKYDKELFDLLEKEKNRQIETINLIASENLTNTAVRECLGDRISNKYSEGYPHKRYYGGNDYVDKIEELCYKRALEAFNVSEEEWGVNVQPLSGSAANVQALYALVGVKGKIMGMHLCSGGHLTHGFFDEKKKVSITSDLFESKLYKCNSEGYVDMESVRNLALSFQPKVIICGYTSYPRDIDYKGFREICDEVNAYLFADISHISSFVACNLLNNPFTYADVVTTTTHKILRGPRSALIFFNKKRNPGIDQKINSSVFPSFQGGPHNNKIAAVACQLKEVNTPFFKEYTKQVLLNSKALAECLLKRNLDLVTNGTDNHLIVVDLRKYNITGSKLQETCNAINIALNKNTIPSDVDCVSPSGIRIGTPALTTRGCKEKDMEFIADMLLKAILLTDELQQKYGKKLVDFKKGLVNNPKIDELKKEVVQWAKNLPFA

[2] = biological target: T1, Plasmodium falciparum serine hydroxymethyltransferase (PfSHMT); test: MTHFD-coupled enzyme assay at a single concentration; conditions: read-out: % inhibition at 100 μM
[3] = biological target: T1, Plasmodium falciparum serine hydroxymethyltransferase (PfSHMT); test: MTHFD-coupled enzyme assay, […], […] to […] h incubation; conditions: read-out: % inhibition at 100 μM

| Compound | inhibition at 100 µM [2] | also measured |
| --- | --- | --- |
| C[C@@H]1[C@H](O)[C@@H](C)/C=C/C=C/C=C/C=C/C=C/C=C/C=C/[C@H](O[C@@H]2O[C@H](C)[C@@H](O)[C@H](N)[C@@H]2O)C[C@@H]2O[C@](O)(C[C@@H](O)C[C@@H](O)[C@H](O)CC[C@@H](O)C[C@@H](O)CC(=O)O[C@H]1C)C[C@H](O)[C@H]2C(=O)O [amphotericin B] |  | IC50 [1]: 106 ± 1 µM |
| CC(C)[C@@]1(NC(=O)[C@@H]2C[C@@H]3c4cccc5[nH]cc(c45)C[C@H]3N(C)C2)O[C@@]2(O)[C@@H]3CCCN3C(=O)[C@H](Cc3ccccc3)N2C1=O [dihydroergocristine mesylate] | 20 to 50% |  |
| CO[C@H]1/C=C/O[C@@]2(C)Oc3c(C)c(O)c4c(c3C2=O)C2=NC3(CCN(CC(C)C)CC3)NC2=C(NC(=O)/C(C)=C\C=C\[C@H](C)[C@H](O)[C@@H](C)[C@@H](O)[C@@H](C)[C@H](OC(C)=O)[C@@H]1C)C4=O [rifabutin] | 20 to 50% |  |
| CO[C@H]1/C=C/O[C@@]2(C)Oc3c(C)c(O)c4c(O)c(c5c(nc6cc(C)ccn65)c4c3C2=O)NC(=O)/C(C)=C\C=C\[C@H](C)[C@H](O)[C@@H](C)[C@@H](O)[C@@H](C)[C@H](OC(C)=O)[C@@H]1C [rifaximin] |  | inhibition at 100 µM [3]: ~60% |
